{"source": "patent US9452976B2", "about": "“Pactamycin analogs and methods of making thereof” (Oregon State University, priority 2007, dated 2016)", "origin": "cited, not measured here", "key": {"[1]": {"system": "Gram-positive and Gram-negative bacteria"}, "[2]": {"conditions": "reason clinical application was abandoned"}}}
{"smiles": "CC[C@]1(NC(=O)N(C)C)[C@@H](N)[C@H](Nc2cccc(C(C)=O)c2)[C@](O)(COC(=O)c2c(C)cccc2O)[C@]1(C)O", "note": "[7-Deoxypactamycin, 7-deoxypactamycin]", "values": [{"measurement": "activity against a number of Gram-positive and Gram-negative bacteria, compared with pactamycin", "setting": "[1]; relative to pactamycin", "value": "equally active"}]}
{"smiles": "CC(=O)c1cccc(N[C@H]2[C@H](N)[C@]3(NC(=O)O[C@H]3C)[C@@](C)(O)[C@@]2(O)COC(=O)c2c(C)cccc2O)c1", "note": "[pactamycate]", "values": [{"measurement": "bioactivity of the cyclic derivative formed by attack of C-7 hydroxyl on the carbamoyl carbonyl", "setting": "[1]", "value": "inactive"}]}
{"smiles": "CC(=O)c1cccc(N[C@H]2[C@H](N)[C@@](NC(=O)N(C)C)([C@H](C)O)[C@@](C)(O)[C@@]2(O)COC(=O)c2c(C)cccc2O)c1", "note": "[Pactamycin, pactamycin]", "values": [{"measurement": "toxicity", "setting": "[2]", "value": "high toxicity"}, {"measurement": "anti-tumor activity", "setting": "tumor", "value": "strong anti-tumor activity"}, {"measurement": "antibacterial activities against Gram-positive and Gram-negative bacteria", "setting": "[1]; Bhuyan, Appl. Microbiol. 1962", "value": "potent antibacterial activities"}]}
